Patent publication US9427426B2 (priority 2008, dated 2016)

What was measured:
[1] = system: rats intoxicated with mercury (mercury chloride); assay: Example 1: erdosteine per os vs NAC per os in rats intoxicated with mercury; format: in vivo, Wistar rats; details: erdosteine 875 mg/kg or NAC 500 mg/kg per os once a day for 7 days
Description: (§1) 3. […] NAC has been mixed with bidistilled water, the resulting solution being administered in volume of 10 ml/kg.
(§2) 4. […] Erdosteine has been mixed with bidistilled water and sodium hydrogen carbonate equimolar, the resulting solution being administered in volume of 10 ml/kg.
(§3) Mortality has been recorded. […] Few animals have been collected urine eliminated spontaneously for Pb—Hg analysis. Animals have been sacrificed under general anesthesia with ether. 6 animals of each group (3 males and 3 females) have been randomly selected for macroscopic and microscopic anatomic-pathological examination.

[2] = system: rats intoxicated with lead (lead acetate); assay: Example 1: erdosteine per os vs NAC per os in rats intoxicated with lead; format: in vivo, Wistar rats; details: erdosteine 875 mg/kg or NAC 500 mg/kg per os once a day for 7 days
Description: as §1, §2, §3

rats = assay: Example 2: erdosteine toxicity i.v. (lot 11); format: in vivo, Wistar rats; details: erdosteine 3500 mg/kg i.v. slowly; 10 animals, not metal intoxicated
Source text: (§4) These lots have been evaluated only for mortality.

[3] = Example 2: erdosteine toxicity i.v. (lot 11); format: in vivo, Wistar rats; details: both sexes, Wistar, in vivo, iv, 3500 mg/kg; rat, i.v.; read-out: LD50 of i.v. form of erdosteine
Source text: as §4

[4] = system: rats intoxicated with mercury (mercury chloride); assay: Example 2: erdosteine i.v. vs NAC i.v. in rats intoxicated with mercury; format: in vivo, Wistar rats; details: for Mortalitaty total / Mortality in percent: Hg intoxicated (mercury chloride 42 mg/kg per os), 35 animals/lot; for Anatomical pathology: lesions / Hg in urine mean values / Creatinine mean values / Haematocrit mean values / Haemoglobin mean values / Leucocytes mean values / Urea mean values / Uric acid mean value / erythrocytes mean values: Hg intoxicated; for Creatinine mean values / Haematocrit mean values / Haemoglobin mean values / Leucocytes mean values / Urea mean values / Uric acid mean value / erythrocytes mean values: survivors after 7 days
Description: The animals have been randomly divided in 11 lots.
(§5) 3. […] NAC has been dissolved in bidistilled water.
4. […] Erdosteine has been solubilized in bidistilled water and sodium hydrogen carbonate equimolar, the resulting solution being administered in volume of 10 ml/kg. Preliminarily we tested the different molar ratios erdosteine/sodium hydrogen carbonate in a range between 0.5:1 and 1.5:1 and the volume to be solubilized. […] Animals Monitoring:
as §3

[5] = water (NAC: at 20° C.); cited from earlier work
rat = details: cited from earlier work
[6] = system: rats intoxicated with paracetamol; assay: Example 4: erdosteine i.v. vs NAC i.v. in rats intoxicated with paracetamol; format: in vivo, Wistar rats
Source text: Experiment has been carried on in parallel with experiment of example 3 and results of animals not intoxicated not treated (lot1) have been used as reference.
as §5
Animals have been monitored as described in example 3.
Mortality has been recorded.

[7] = Hg intoxicated (mercury chloride 42 mg/kg per os), 30 animals/lot
[8] = survivors after 7 days, Hg intoxicated
[9] = Pb intoxicated (lead acetate 4665 mg/kg per os), 30 animals/lot
[10] = survivors after 7 days, Pb intoxicated
[11] = ERDO1 = erdosteine 350 mg/kg i.v. or NAC 114 mg/kg i.v. once a day for 7 days
[12] = ERDO2 = erdosteine 175 mg/kg i.v. once a day for 7 days
[13] = ERDO1 = erdosteine 350 mg/kg i.v. or NAC 114 mg/kg i.v. once a day
[14] = ERDO2 = erdosteine 175 mg/kg i.v. once a day
[15] = paracetamol […] per os, erdosteine 350 mg/kg i.v. or NAC 114 mg/kg i.v. once a day for 7 days, 30 animals/lot
[16] = paracetamol intoxicated, erdosteine 350 mg/kg i.v. or NAC 114 mg/kg i.v., 7 days
[17] = survivors at 7 days, paracetamol intoxicated, erdosteine 350 mg/kg i.v. or NAC 114 mg/kg i.v.

## O=C(O)CSCC(=O)NC1CCSC1=O (stereo not shown) [erdosteine, Erdosteine]
[1]; [7]
  Mortality in percent: 16.6%
  Mortality total: 5^1
[1]; Hg intoxicated
  Anatomical pathology: lesions (macroscopic and microscopic examination): less important lesions
[1]; Hg intoxicated, GS MS Varian 4100
  Hg in urine mean values: 14.7 mg/L
[1]; [8]
  Creatinine mean values: 0.47 ^1, 2 mK/dl
  Haematocrit mean values: 38.58^3
  Haemoglobin mean values: 13.75^3 g/dl
  Leucocytes mean values: 7.81^3
  Urea mean values: 49.18 ^1, 2 mg/dl
  Uric acid mean value: 2.40 ^1 mg/dl
  erythrocytes mean values: 6.81^3 *10^6/mm^3
[2]; [9]
  Mortality in percent: 16.6%
  Mortality total: 5
[2]; Pb intoxicated
  Anatomical pathology: lesions (macroscopic and microscopic examination): less important damages
[2]; Pb intoxicated, GS MS Varian 4100
  Pb in urine, Pb mean values: 10.9 mg/L
[2]; [10]
  Creatinine mean values: 0.48 ^1, 2 mK/dl
  Haematocrit mean values: 39.41^3
  Haemoglobin mean values: 13.75^3 g/dl
  Leucocytes mean values: 7.31^3
  Urea mean values: 50.93 ^1, 2 mg/dl
  Uric acid mean value: 1.90 ^3 mg/dl
  erythrocytes mean values: 6.82^3 *10^6/mm^3
rats
  Mortalitaty total: 1/10
  Mortality in percent: 10%
[3]
  LD50: > 3500 mg/kg
[4]; [11]
  Mortalitaty total: 8 ^1, 2
  Mortality in percent: 22.6%
  Anatomical pathology: lesions: least severe damages
  Hg in urine mean values: 18.7 mg/L
[4]; ERDO1 = erdosteine 350 mg/kg i.v. or NAC 114 mg/kg i.v. once a day for 7 days, listed as ERDOI
  Mortality in percent: 22.6%
[4]; [12]
  Mortalitaty total: 12 ^1, 2
  Mortality in percent: 34.3%
  Anatomical pathology: lesions: less important lesions
  Hg in urine mean values: 14.4 mg/L
[4]; [13]
  Creatinine mean values: 0.60 ^2 mK/dl
  Haematocrit mean values: 38.43 ^3
  Haemoglobin mean values: 15.05 ^3 g/dl
  Leucocytes mean values: 17.36 ^3
  Urea mean values: 50.36 ^1, 2 mg/dl
  Uric acid mean value: 2.25 ^4 mg/dl
  erythrocytes mean values: 6.98 ^3 *10^6/mm^3
[4]; [14]
  Creatinine mean values: 0.51 ^1, 2 mK/dl
  Haematocrit mean values: 36.83 ^3
  Haemoglobin mean values: 13.86 ^J g/dl
  Leucocytes mean values: 8.61 ^3
  Urea mean values: 53.15 ^1, 2 mg/dl
  Uric acid mean value: 2.23 ^4 mg/dl
  erythrocytes mean values: 6.55 ^3 *10^6/mm^3
[5]
  solubility in water, in words: moderately soluble
rat; per os, rat where given
  LD50 per os: 8750 mg/kg
rat; rat, i.v.
  LD50 i.v.: > 3500 mg/kg
[6]; [15]
  Mortality percentual: 27%
  Total mortality: 8/30
[6]; paracetamol intoxicated, erdosteine 350 mg/kg i.v. or NAC 114 mg/kg i.v.
  Renal aggression (urine summary), in words: antagonized
[6]; [16]
  Urine summary: Bil.: 1 mg/dL
  Urine summary: Chet: neg
  Urine summary: Density: 1020
  Urine summary: Erythrocyte: 25 µL⁻¹
  Urine summary: Glucose: neg
  Urine summary: Leuc: 10 µL⁻¹
  Urine summary: Prot.: 50 mg/dL
  Urine summary: UBG: 1 mg/dL
  Urine summary: pH: 7
[6]; [17]
  ALT: 165.4^2,3
  AST: 45.2^2
  HCT: 42.9^1
  PLT: 749.8^2,3
  RBC: 7.45^1
  Urea: 55.2^2,3
  Uric acid: 1.934^2,3
